Test results taken from patent publication US7951843B2, “Amide linked modulators of γ-secretase” (Janssen Pharmaceutica N.V., priority 2007, dated 2011).

Molecular target: γ-secretase (Homo sapiens, UniProt P49768)
Assay: Screening for γ-secretase-modulating activity in SKNBE2 cells carrying APP 695 wild type
Type: cell-based
Conditions: SKNBE2 cells carrying the APP 695 wild type
Experimental: Screening of the Compounds of the Invention for γ-Secretase-modulating Activity Screening was carried out using SKNBE2 cells carrying the APP 695—wild type, grown in DMEM/NUT-mix F12 (HAM) provided by Gibco (cat no. 31330-38) containing 5% Serum/Fe supplemented with 1% non-essential amino acids. Cells were grown to near confluency. The screening was performed using the assay as described in Citron et al (1997) Nature Medicine 3: 67.

inhibition at 1 µM	Compound
34%	CC(C)CC(C(=O)O)c1cc(NC(=O)c2cc(F)cc(F)c2)cc(-c2ccc(C(F)(F)F)cc2)c1 (centres unmarked) [Compound 4, 2-[5-(3,5-Difluoro-benzoylamino)-4′-trifluoromethyl-biphenyl-3-yl]-4-methyl-pentanoic acid]
24%	CC(C)CC(C(=O)O)c1cc(NC(=O)c2cc(C(F)(F)F)cc(C(F)(F)F)c2)cc(-c2ccc(C(F)(F)F)cc2)c1 (centres unmarked) [Compound 3, 2-[5-(3,5-Bis-trifluoromethyl-benzoylamino)-4′-trifluoromethyl-biphenyl-3-yl]-4-methyl-pentanoic acid]
